Literature values as cited in patent EP1362518A1, “Food product providing sustained blood levels of exogenous substances” (NESTEC S.A., priority 2002, dated 2003).

Legend:
dogs = conditions: 100mg/kg/d (caffeine/body weight/day) consumed for more than 3 days
[1] = not given; remark: listed apart in the source

Cn1c(=O)c2c(ncn2C)n(C)c1=O [caffeine]
death (dogs): death can occur | threshold value for stimulation (in vivo): about 2 mg/l blood plasma | threshold value of stimulation (in vivo): about 2 mg/l plasma | upper end of the desired range (side effects above this range): about 20 mg/l blood plasma | half-life of caffeine ([1]; adults): 3 to 7 h | time of peak in caffeine level in blood ([1]; after consumption of a cup of coffee): about an hour
